Results published in the supplement of paper PMC11061612.

What was measured:
Carboplatin = compound: C1CC(C1)(C(=O)[O-])C(=O)[O-].N.N.[Pt+2] [Carboplatin]; details: max 10 µM
In short: (§1)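 Cancer cell lines were seeded into 1536-well plates in 7.5 μl medium (DMEM/F12 or RPMI, 10% FBS), held 24 hours at 37°C and 5% CO2, and dosed for 72 hours with final DMSO typically 0.2%. Luminescence from CellTiter-Glo 2.0, scaled between blank-well and DMSO-well means, served as viability. The single-agent IC50 was obtained from dose-response fits with a non-linear mixed effects model, each fit being a two-parameter logistic curve.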

AZD5363 = compound: C1CN(CCC1(C(=O)N[C@@H](CCO)C2=CC=C(C=C2)Cl)N)C3=NC=NC4=C3C=CN4 [AZD5363]; details: max 10 µM
In short: as §1

AZD1775 = compound: C=CCn1c(=O)c2cnc(Nc3ccc(N4CCN(C)CC4)cc3)nc2n1-c1cccc(C(C)(C)O)n1 [AZD1775]; details: max 3 µM
In short: as §1

Trametinib = compound: CC(=O)Nc1cccc(-n2c(=O)n(C3CC3)c(=O)c3c(Nc4ccc(I)cc4F)n(C)c(=O)c(C)c32)c1 [Trametinib]; details: max 1 µM
In short: as §1

Paclitaxel = compound: CC(=O)O[C@H]1C(=O)[C@@]2(C)[C@H]([C@H](OC(=O)c3ccccc3)[C@]3(O)C[C@H](OC(=O)[C@H](O)[C@@H](NC(=O)c4ccccc4)c4ccccc4)C(C)=C1C3(C)C)[C@]1(OC(C)=O)CO[C@@H]1C[C@@H]2O [Paclitaxel]; details: max 3 µM
In short: as §1

Palbociclib = compound: CC(=O)c1c(C)c2cnc(Nc3ccc(N4CCNCC4)cn3)nc2n(C2CCCC2)c1=O [Palbociclib]; details: max 10 µM
In short: as §1

AZD1390 = compound: CC(C)n1c(=O)n(C)c2cnc3cc(F)c(-c4ccc(OCCCN5CCCCC5)nc4)cc3c21 [AZD1390]; details: max 0.3 µM
In short: as §1

Venetoclax = compound: CC1(C)CCC(CN2CCN(c3ccc(C(=O)NS(=O)(=O)c4ccc(NCC5CCOCC5)c([N+](=O)[O-])c4)c(Oc4cnc5[nH]ccc5c4)c3)CC2)=C(c2ccc(Cl)cc2)C1 [Venetoclax]; details: max 1 µM
In short: as §1

Dasatinib = compound: CC1=C(C(=CC=C1)Cl)NC(=O)C2=CN=C(S2)NC3=CC(=NC(=N3)C)N4CCN(CC4)CCO [Dasatinib]; details: max 2 µM
In short: as §1

SG3199 = compound: CC1=CN2[C@@H](C1)C=NC3=CC(=C(C=C3C2=O)OC)OCCCCCOC4=C(C=C5C(=C4)N=C[C@@H]6CC(=CN6C5=O)C)OC [SG3199]; details: max 0.001 µM
In short: as §1

AZD2811 = compound: CCN(CCO)CCCOc1ccc2c(Nc3cc(CC(=O)Nc4cccc(F)c4)[nH]n3)ncnc2c1 [AZD2811]; details: max 1 µM
In short: as §1

SN-38 = compound: CCc1c2c(nc3ccc(O)cc13)-c1cc3c(c(=O)n1C2)COC(=O)[C@]3(O)CC [SN-38]; details: max 0.3 µM
In short: as §1

AZD0156 = compound: CN(C)CCCOc1ccc(-c2ccc3ncc4c(c3c2)n(C2CCOCC2)c(=O)n4C)cn1 [AZD0156]; details: max 3 µM
In short: as §1

AZD4320 = compound: CN(CC[C@H](CSC1=CC=CC=C1)NC2=C(C=C(C=C2)S(=O)(=O)NC(=O)C3=CC=C(C=C3)N4CCC(CC4)[C@H](C5=CC=CC=C5C6=CC=C(C=C6)Cl)O)S(=O)(=O)C(F)(F)F)CCO [AZD4320]; details: max 1 µM
In short: as §1

Alisertib = compound: COc1cc(Nc2ncc3c(n2)-c2ccc(Cl)cc2C(c2c(F)cccc2OC)=NC3)ccc1C(=O)O [Alisertib]; details: max 10 µM
In short: as §1

Etoposide = compound: COc1cc([C@@H]2c3cc4c(cc3[C@@H](O[C@@H]3O[C@@H]5CO[C@@H](C)O[C@H]5[C@H](O)[C@H]3O)[C@H]3COC(=O)[C@H]23)OCO4)cc(OC)c1O [Etoposide]; details: max 10 µM
In short: as §1

Gefitinib = compound: COc1cc2ncnc(Nc3ccc(F)c(Cl)c3)c2cc1OCCCN1CCOCC1 [Gefitinib]; details: max 10 µM
In short: as §1

Prexasertib = compound: COc1cccc(OCCCN)c1-c1cc(Nc2cnc(C#N)cn2)n[nH]1 [Prexasertib]; details: max 1 µM
In short: as §1

Doxorubicin = compound: COc1cccc2c1C(=O)c1c(O)c3c(c(O)c1C2=O)C[C@@](O)(C(=O)CO)C[C@@H]3O[C@H]1C[C@H](N)[C@H](O)[C@H](C)O1 [Doxorubicin]; details: max 1 µM
In short: as §1

AZD5153 = compound: COc1nnc2ccc(N3CCC(c4ccc(OCCN5CCN(C)C(=O)[C@H]5C)cc4)CC3)nn12 [AZD5153]; details: max 1 µM
In short: as §1

Lapatinib = compound: CS(=O)(=O)CCNCc1ccc(-c2ccc3ncnc(Nc4ccc(OCc5cccc(F)c5)c(Cl)c4)c3c2)o1 [Lapatinib]; details: max 10 µM
In short: as §1

AZD8186 = compound: C[C@@H](Nc1cc(F)cc(F)c1)c1cc(C(=O)N(C)C)cc2c(=O)cc(N3CCOCC3)oc12 [AZD8186]
In short: as §1

Crizotinib = compound: C[C@@H](Oc1cc(-c2cnn(C3CCNCC3)c2)cnc1N)c1c(Cl)ccc(F)c1Cl [Crizotinib]; details: max 10 µM
In short: as §1

Savolitinib = compound: C[C@@H](c1ccc2nccn2c1)n1nnc2ncc(-c3cnn(C)c3)nc21 [Savolitinib]; details: max 1 µM
In short: as §1

AZD6738 = compound: C[C@@H]1COCCN1C2=NC(=NC(=C2)C3(CC3)[S@](=N)(=O)C)C4=C5C=CNC5=NC=C4 [AZD6738]; details: max 10 µM
In short: as §1

AZD5991 = compound: Cc1c2c(nn1C)CSCc1cc(n(C)n1)CSc1cc(c3ccccc3c1)OCCCc1c(C(=O)O)n(C)c3c-2c(Cl)ccc13 [AZD5991]; details: max 1 µM
In short: as §1

AZD7648 = compound: Cc1cc2ncnn2cc1Nc1ncc2c(n1)n(C1CCOCC1)c(=O)n2C [AZD7648]; details: max 10 µM
In short: as §1

Taselisib = compound: Cc1nc(-c2cn3c(n2)-c2ccc(-c4cnn(C(C)(C)C(N)=O)c4)cc2OCC3)n(C(C)C)n1 [Taselisib]; details: max 10 µM
In short: as §1

Selumetinib = compound: Cn1cnc2c(F)c(Nc3ccc(Br)cc3Cl)c(C(=O)NOCCO)cc21 [Selumetinib]; details: max 10 µM
In short: as §1

SRA737 = compound: N#Cc1cnc(Nc2cc(NC[C@H]3CNCCO3)c(C(F)(F)F)cn2)cn1 [SRA737]; details: max 10 µM
In short: as §1

MK-2206 = compound: NC1(c2ccc(-c3nc4ccn5c(=O)[nH]nc5c4cc3-c3ccccc3)cc2)CCC1 [MK-2206]; details: max 10 µM
In short: as §1

Gemcitabine = compound: Nc1ccn([C@@H]2O[C@H](CO)[C@@H](O)C2(F)F)c(=O)n1 [Gemcitabine]; details: max 0.3 µM
In short: as §1

[1] = compound: O=C(Nc1ccc2[nH]nc(-c3ccncc3)c2c1)[C@@H]1CCN(CC(=O)N2CCN(c3ccc(-c4ncccn4)cc3)CC2)C1; details: max 5 µM
In short: as §1

Olaparib = compound: O=C(c1cc(Cc2n[nH]c(=O)c3ccccc23)ccc1F)N1CCN(C(=O)C2CC2)CC1 [Olaparib]; details: max 10 µM
In short: as §1

5-Fluorouracil = compound: O=c1[nH]cc(F)c(=O)[nH]1 [5-Fluorouracil]; details: max 20 µM
In short: as §1

Capivasertib = compound: C1CN(CCC1(C(=O)N[C@@H](CCO)C2=CC=C(C=C2)Cl)N)C3=NC=NC4=C3C=CN4 [Capivasertib]; details: max 10 µM
In short: as §1

Row | Cell Line | IC50, cell viability 72 h (Carboplatin) | IC50, cell viability 72 h (AZD5363) | IC50, cell viability 72 h (AZD1775) | IC50, cell viability 72 h (Trametinib) | IC50, cell viability 72 h (Paclitaxel) | IC50, cell viability 72 h (Palbociclib) | IC50, cell viability 72 h (AZD1390) | IC50, cell viability 72 h (Venetoclax) | IC50, cell viability 72 h (Dasatinib) | IC50, cell viability 72 h (SG3199) | IC50, cell viability 72 h (AZD2811) | IC50, cell viability 72 h (SN-38) | IC50, cell viability 72 h (AZD0156) | IC50, cell viability 72 h (AZD4320) | IC50, cell viability 72 h (Alisertib) | IC50, cell viability 72 h (Etoposide) | IC50, cell viability 72 h (Gefitinib) | IC50, cell viability 72 h (Prexasertib) | IC50, cell viability 72 h (Doxorubicin) | IC50, cell viability 72 h (AZD5153) | IC50, cell viability 72 h (Lapatinib) | IC50, cell viability 72 h (AZD8186; max 10 µM) | IC50, cell viability 72 h (Crizotinib) | IC50, cell viability 72 h (Savolitinib) | IC50, cell viability 72 h (AZD6738) | IC50, cell viability 72 h (AZD5991) | IC50, cell viability 72 h (AZD7648) | IC50, cell viability 72 h (Taselisib) | IC50, cell viability 72 h (Selumetinib) | IC50, cell viability 72 h (SRA737) | IC50, cell viability 72 h (MK-2206) | IC50, cell viability 72 h (Gemcitabine) | IC50, cell viability 72 h [1] | IC50, cell viability 72 h (Olaparib) | IC50, cell viability 72 h (5-Fluorouracil) | IC50, cell viability 72 h (Capivasertib) | IC50, cell viability 72 h (AZD8186; max 3 µM)
1 | Becker (Low Grade Glioma) | > 10 µM | > 10 µM | > 3 µM | > 1 µM | 0.00648 µM | > 10 µM | > 0.3 µM | > 1 µM | > 2 µM | > 0.001 µM | > 1 µM | 0.0285 µM | > 3 µM | > 1 µM | > 10 µM | > 10 µM | > 10 µM | 0.0941 µM | > 1 µM | > 1 µM | > 10 µM | 3.9 µM | > 10 µM | > 1 µM | > 10 µM | > 1 µM | > 10 µM | 3.43 µM | > 10 µM | > 10 µM | > 10 µM | > 0.3 µM | > 5 µM | > 10 µM | > 20 µM |  | 
2 | CHL-1 (Melanoma) | > 10 µM | > 10 µM | 1.68 µM | > 1 µM | 0.0192 µM | > 10 µM | > 0.3 µM | > 1 µM | > 2 µM | > 0.001 µM | > 1 µM | 0.143 µM | > 3 µM | > 1 µM | > 10 µM | 8.95 µM | > 10 µM | 0.0768 µM | > 1 µM | 0.594 µM | 9.96 µM | > 10 µM | > 10 µM | > 1 µM | 2.73 µM | > 1 µM | > 10 µM | 8.26 µM | > 10 µM | > 10 µM | > 10 µM | 0.218 µM | > 5 µM | > 10 µM | > 20 µM |  | 
3 | CML-T1 (Chronic Myelogenous Leukemia) | > 10 µM | 7.38 µM | 0.429 µM | 0.262 µM | 0.0048 µM | 0.222 µM | > 0.3 µM | 0.585 µM | < 0.002 µM | > 0.001 µM | > 1 µM | 0.000718 µM | > 3 µM | 0.0541 µM | 0.142 µM | 0.0926 µM | > 10 µM | 0.00627 µM | 0.0628 µM | > 1 µM | > 10 µM | > 10 µM | 0.692 µM | > 1 µM | 1.11 µM | > 1 µM | > 10 µM | > 10 µM | 4 µM | 0.588 µM | 2.05 µM | 0.0125 µM | > 5 µM | 5.75 µM | 19.5 µM |  | 
4 | COLO-684 (Endometrial Carcinoma) | > 10 µM | 4.51 µM | 0.701 µM | > 1 µM | 0.558 µM | > 10 µM | > 0.3 µM | > 1 µM | > 2 µM | > 0.001 µM | > 1 µM | 0.228 µM | > 3 µM | > 1 µM | > 10 µM | > 10 µM | > 10 µM | 0.0199 µM | > 1 µM | 0.578 µM | > 10 µM | 8.93 µM | > 10 µM | > 1 µM | 4.44 µM | > 1 µM | > 10 µM | 4.2 µM | > 10 µM | 5.2 µM | 7.21 µM | 0.134 µM | > 5 µM | > 10 µM | > 20 µM |  | 
5 | ES-2 (Ovarian Carcinoma) |  |  | 0.476 µM | 0.128 µM |  | > 10 µM | > 0.3 µM | > 1 µM | > 2 µM | > 0.001 µM | > 1 µM | 0.0145 µM | > 3 µM | > 1 µM | 0.596 µM |  | > 10 µM | 0.0401 µM | > 1 µM | 0.875 µM | > 10 µM |  | > 10 µM | > 1 µM | 3.78 µM | > 1 µM | > 10 µM | > 10 µM | 7.43 µM |  | 4.4 µM |  |  | > 10 µM |  | > 10 µM | > 3 µM
